The values that follow come from patent publication US11130756B2, “[1,2,4]Triazolo[4,3-A]pyridinyl substituted indole compounds” (BRISTOL-MYERS SQUIBB COMPANY, priority 2017, dated 2021).

Holding throughout (format): cell-based
For one test, the target named is T1, human TLR8 (Homo sapiens, UniProt Q9NR97).
T1 construct: host or cells: HEK-Blue cells
T1 sequence (Q9NR97 27-1041): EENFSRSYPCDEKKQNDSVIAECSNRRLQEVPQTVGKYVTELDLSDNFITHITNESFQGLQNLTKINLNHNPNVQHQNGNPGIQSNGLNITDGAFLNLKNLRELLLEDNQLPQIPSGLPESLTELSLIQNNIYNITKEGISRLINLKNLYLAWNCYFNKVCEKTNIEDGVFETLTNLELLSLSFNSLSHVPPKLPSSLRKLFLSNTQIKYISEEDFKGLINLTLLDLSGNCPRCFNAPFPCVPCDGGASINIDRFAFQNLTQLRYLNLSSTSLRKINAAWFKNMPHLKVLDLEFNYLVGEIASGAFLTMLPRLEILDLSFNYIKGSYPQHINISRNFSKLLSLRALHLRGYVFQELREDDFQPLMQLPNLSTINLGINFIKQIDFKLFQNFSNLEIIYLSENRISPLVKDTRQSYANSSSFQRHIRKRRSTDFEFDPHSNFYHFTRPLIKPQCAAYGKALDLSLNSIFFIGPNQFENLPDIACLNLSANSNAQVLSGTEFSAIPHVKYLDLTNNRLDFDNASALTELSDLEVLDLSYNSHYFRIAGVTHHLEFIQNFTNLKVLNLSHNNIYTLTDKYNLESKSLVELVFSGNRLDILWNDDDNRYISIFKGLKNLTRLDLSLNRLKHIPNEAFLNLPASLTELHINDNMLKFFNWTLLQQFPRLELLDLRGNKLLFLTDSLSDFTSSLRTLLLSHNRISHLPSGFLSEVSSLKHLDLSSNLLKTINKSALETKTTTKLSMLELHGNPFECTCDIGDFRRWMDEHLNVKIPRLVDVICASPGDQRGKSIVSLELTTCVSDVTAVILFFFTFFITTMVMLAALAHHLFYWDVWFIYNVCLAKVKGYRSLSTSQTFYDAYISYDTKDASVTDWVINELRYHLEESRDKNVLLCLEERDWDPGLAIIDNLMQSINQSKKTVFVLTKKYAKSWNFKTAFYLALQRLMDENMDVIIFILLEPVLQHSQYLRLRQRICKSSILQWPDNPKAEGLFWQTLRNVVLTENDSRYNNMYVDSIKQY
In words: TLR8 inhibition reporter assay (HEK-Blue, SEAP). The settings on record: HEK-Blue cells overexpressing human TLR8, R848 15.9 μM, 22 hour incubation. The method, boiled down:
(§1)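 HEK-Blue cells overexpressing human TLR7, TLR8 or TLR9 carry a SEAP reporter driven by NF-κB/AP-1 sites. Compounds (0.05 nM–50 μM) were preincubated 30 min at room temperature, then cells were stimulated with gardiquimod 7.5 μM (TLR7), R848 15.9 μM (TLR8) or ODN2006 5 nM (TLR9) for 22 h at 37 °C.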
In general terms: A reporter such as luciferase makes a cellular process visible.

The target in a further test is T2, human TLR9 (Homo sapiens, UniProt Q9NR96).
T2 construct: host or cells: HEK-Blue cells
T2 sequence (Q9NR96 26-1032): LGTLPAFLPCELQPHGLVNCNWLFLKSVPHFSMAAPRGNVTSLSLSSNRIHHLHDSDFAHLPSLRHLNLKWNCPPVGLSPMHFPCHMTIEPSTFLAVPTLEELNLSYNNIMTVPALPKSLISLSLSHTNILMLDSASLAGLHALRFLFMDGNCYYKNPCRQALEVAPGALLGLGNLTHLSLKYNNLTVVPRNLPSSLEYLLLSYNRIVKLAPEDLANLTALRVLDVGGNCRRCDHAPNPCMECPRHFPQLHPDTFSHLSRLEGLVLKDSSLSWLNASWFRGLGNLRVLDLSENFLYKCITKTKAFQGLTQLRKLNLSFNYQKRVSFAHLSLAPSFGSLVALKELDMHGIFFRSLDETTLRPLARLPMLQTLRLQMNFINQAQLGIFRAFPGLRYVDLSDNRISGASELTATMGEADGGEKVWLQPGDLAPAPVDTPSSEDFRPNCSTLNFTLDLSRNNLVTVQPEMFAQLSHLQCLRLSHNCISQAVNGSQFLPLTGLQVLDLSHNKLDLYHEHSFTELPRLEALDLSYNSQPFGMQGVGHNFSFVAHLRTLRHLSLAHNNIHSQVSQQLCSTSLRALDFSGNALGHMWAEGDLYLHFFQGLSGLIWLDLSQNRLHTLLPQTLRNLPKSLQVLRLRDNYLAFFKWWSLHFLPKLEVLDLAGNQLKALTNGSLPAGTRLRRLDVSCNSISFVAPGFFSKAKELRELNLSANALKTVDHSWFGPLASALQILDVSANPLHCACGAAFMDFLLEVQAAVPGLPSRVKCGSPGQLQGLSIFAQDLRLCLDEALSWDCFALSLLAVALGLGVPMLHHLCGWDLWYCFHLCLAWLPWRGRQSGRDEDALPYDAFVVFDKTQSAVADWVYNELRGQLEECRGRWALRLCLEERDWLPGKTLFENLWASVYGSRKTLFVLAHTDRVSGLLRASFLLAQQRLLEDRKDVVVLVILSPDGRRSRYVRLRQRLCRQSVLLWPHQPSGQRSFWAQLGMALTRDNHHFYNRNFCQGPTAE
In words: TLR9 inhibition reporter assay (HEK-Blue, SEAP). The settings on record: HEK-Blue cells overexpressing human TLR9, ODN2006 5 nM, 22 hour incubation. In a few lines:
as §1

In the next test the target is T3, human TLR7 (Homo sapiens, UniProt Q9NYK1).
T3 construct: host or cells: HEK-Blue cells
T3 sequence (Q9NYK1 27-1049): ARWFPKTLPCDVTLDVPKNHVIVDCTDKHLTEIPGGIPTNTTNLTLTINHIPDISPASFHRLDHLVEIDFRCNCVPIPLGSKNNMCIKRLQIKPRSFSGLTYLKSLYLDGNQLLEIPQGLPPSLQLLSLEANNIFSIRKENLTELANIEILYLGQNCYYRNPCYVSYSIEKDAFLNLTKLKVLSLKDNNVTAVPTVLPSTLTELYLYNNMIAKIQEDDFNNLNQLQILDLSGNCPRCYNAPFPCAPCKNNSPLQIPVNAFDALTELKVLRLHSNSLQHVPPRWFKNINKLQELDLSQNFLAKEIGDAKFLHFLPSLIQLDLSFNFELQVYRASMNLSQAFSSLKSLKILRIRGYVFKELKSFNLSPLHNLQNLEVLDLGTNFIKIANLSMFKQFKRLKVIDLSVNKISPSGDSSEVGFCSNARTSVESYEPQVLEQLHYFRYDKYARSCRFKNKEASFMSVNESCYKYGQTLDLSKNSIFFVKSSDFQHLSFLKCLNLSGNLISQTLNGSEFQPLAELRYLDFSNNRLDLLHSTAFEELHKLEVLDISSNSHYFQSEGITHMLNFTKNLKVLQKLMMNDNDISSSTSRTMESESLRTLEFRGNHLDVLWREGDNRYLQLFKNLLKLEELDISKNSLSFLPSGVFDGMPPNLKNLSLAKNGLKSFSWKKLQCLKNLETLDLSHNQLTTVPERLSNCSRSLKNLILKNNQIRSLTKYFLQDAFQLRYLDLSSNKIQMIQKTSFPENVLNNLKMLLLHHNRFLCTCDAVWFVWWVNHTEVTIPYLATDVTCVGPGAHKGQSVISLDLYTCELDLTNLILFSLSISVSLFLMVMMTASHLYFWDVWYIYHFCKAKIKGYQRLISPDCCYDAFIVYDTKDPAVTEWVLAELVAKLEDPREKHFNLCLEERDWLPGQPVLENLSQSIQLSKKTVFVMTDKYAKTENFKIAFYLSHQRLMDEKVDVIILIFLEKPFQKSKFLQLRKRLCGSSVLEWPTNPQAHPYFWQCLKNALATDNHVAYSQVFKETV
In words: TLR7 inhibition reporter assay (HEK-Blue, SEAP). The settings on record: HEK-Blue cells overexpressing human TLR7, gardiquimod 7.5 μM, 22 hour incubation. In a few lines:
as §1

A word on the IC50: it is the concentration that gives 50% inhibition. On to `Cc1cc(-c2[nH]c3ccc(C4CCN(CCS(C)(=O)=O)CC4)cc3c2C(C)C)cn2c(C)nnc12` [Example 32, 6-(3-isopropyl-5-(1-(2-(methylsulfonyl)ethyl)piperidin-4-yl)-1H-indol-2-yl)-3,8-dimethyl-[1,2,4]triazolo[4,3-a]pyridine], for which the 50% inhibitory concentration (IC50) at human TLR8 was found to be 0.0021 µM; against human TLR9, 3.67 µM; against human TLR7, 0.0111 µM.
Taken in the same sequence, the figures for `Cc1cc(-c2[nH]c3ccc(C4CCN(Cc5ncn(C)n5)CC4)cc3c2C(C)C)cn2c(C)nnc12` [Example 33, 6-(3-isopropyl-5-(1-((1-methyl-1H-1,2,4-triazol-3-yl)methyl)piperidin-4-yl)-1H-indol-2-yl)-3,8-dimethyl-[1,2,4]triazolo[4,3-a]pyridine] were 0.0079 µM, 5.16 µM and 0.0296 µM.
As for `Cc1cc(-c2[nH]c3ccc(C4CCN(CC(=O)N(C)C)CC4)cc3c2C(C)C)cn2c(C)nnc12` [Example 34, 2-(4-(2-(3,8-dimethyl-[1,2,4]triazolo[4,3-a]pyridin-6-yl)-3-isopropyl-1H-indol-5-yl)piperidin-1-yl)-N,N-dimethylacetamide], the half-maximal inhibitory concentration (IC50) on human TLR8 came out at 0.0046 µM; against human TLR9, 1.43 µM; on human TLR7, 0.0091 µM.
With `Cc1cc(-c2[nH]c3ccc(C4CCN(CCS(C)(=O)=O)CC4)cc3c2C(C)C)cn2cnnc12` [Example 35, 6-(3-isopropyl-5-(1-(2-(methylsulfonyl)ethyl)piperidin-4-yl)-1H-indol-2-yl)-8-methyl-[1,2,4] triazolo[4,3-a]pyridine], the IC50 against human TLR8 amounted to 0.003 µM; at human TLR9, 5.84 µM; against human TLR7 it was 0.0007 µM.
For `Cc1cc(-c2[nH]c3ccc(C4CCN(CCCC(F)(F)F)CC4)cc3c2C(C)C)cn2cnnc12` [Example 36, 6-(3-isopropyl-5-(1-(4,4,4-trifluorobutyl)piperidin-4-yl)-1H-indol-2-yl)-8-methyl-[1,2,4]triazolo[4,3-a]pyridine], the IC50 at human TLR8 stood at 0.0045 µM; against human TLR9, 0.919 µM; against human TLR7, 0.0012 µM.
With `Cc1cc(-c2[nH]c3ccc(C4CCN(CC#N)CC4)cc3c2C(C)C)cn2cnnc12` [Example 37, 2-(4-(3-isopropyl-2-(8-methyl-[1,2,4]triazolo[4,3-a]pyridin-6-yl)-1H-indol-5-yl)piperidin-1-yl)acetonitrile], the values for the half-inhibitory concentration (IC50) on human TLR8, at human TLR9 and against human TLR7 were 0.0065 µM, 1.52 µM and 0.0003 µM, respectively.
In the case of `COCc1nnc2ccc(-c3[nH]c4ccc(C5CCN(CC(=O)N(C)C)CC5)cc4c3C(C)C)cn12` [Example 38, 2-(4-(3-isopropyl-2-(3-(methoxymethyl)-[1,2,4]triazolo[4,3-a]pyridin-6-yl)-1H-indol-5-yl)piperidin-1-yl)-N,N-dimethylacetamide], the IC50 against human TLR8 turned out to be 0.402 µM; at human TLR9 it was 3.12 µM; against human TLR7 it was 0.281 µM.
As to `Cc1c(-c2[nH]c3ccc(C4CCN(CC(=O)N(C)C)CC4)cc3c2C(C)C)cn2cnnc2c1C` [Example 39, 2-(4-(2-(7,8-dimethyl-[1,2,4]triazolo [4,3-a]pyridin-6-yl)-3-isopropyl-1H-indol-5-yl)piperidin-1-yl)-N,N-dimethylacetamide], the 50% inhibitory concentration (IC50) is 0.0095 µM against human TLR8, 4.24 µM on human TLR9 and 0.0019 µM at human TLR7.
For the compound `Cc1cc(-c2[nH]c3ccc(C4CCN(Cc5ncn(C)n5)CC4)cc3c2C(C)C)c(C)n2cnnc12` [Example 40, 6-(3-isopropyl-5-(1-((1-methyl-1H-1,2,4-triazol-3-yl)methyl)piperidin-4-yl)-1H-indol-2-yl)-5,8-dimethyl-[1,2,4]triazolo[4,3-a]pyridine], the concentration for half-maximal inhibition (IC50) was 0.0045 µM at human TLR8, 7.89 µM on human TLR9 and 0.104 µM at human TLR7.
In the same order, the values of `Cc1cc(-c2[nH]c3ccc(C4CCN(CCCC(F)(F)F)CC4)cc3c2C(C)C)c(C)n2cnnc12` [Example 41, 6-(3-isopropyl-5-(1-(4,4,4-trifluorobutyl)piperidin-4-yl)-1H-indol-2-yl)-5,8-dimethyl-[1,2,4]triazolo[4,3-a]pyridine] are 0.0033 µM, 2.85 µM and 0.0255 µM.
Take `Cc1cc(-c2[nH]c3ccc(C4CCN(CC(=O)N(C)C)CC4)cc3c2C(C)C)c(C)n2cnnc12` [Example 42, 2-(4-(2-(5,8-dimethyl-[1,2,4]triazolo[4,3-a]pyridin-6-yl)-3-isopropyl-1H-indol-5-yl)piperidin-1-yl)-N,N-dimethylacetamide]: the 50% inhibitory concentration (IC50) at human TLR8 is 0.006 µM; against human TLR9, 3.75 µM; against human TLR7, 0.0325 µM.
Turning to `Cc1c(-c2[nH]c3ccc(C4CCN(CCS(C)(=O)=O)CC4)cc3c2C(C)C)cn2cnnc2c1C` [Example 43, 6-(3-isopropyl-5-(1-(2-(methylsulfonyl)ethyl)piperidin-4-yl)-1H-indol-2-yl)-7,8-dimethyl-[1,2,4]triazolo[4,3-a]pyridine], the results for the 50% inhibitory concentration (IC50) on human TLR8, against human TLR9 and on human TLR7 were 0.0032 µM, 6.61 µM and 0.0018 µM, respectively.
